Source: ChEMBL document CHEMBL5576071, “Structure optimization of Cmpd-15 as negative allosteric modulators for the β2-adrenergic receptor” (Bioorg Med Chem, 2024)

Legend:
[1] = molecular target: Beta-2 adrenergic receptor (Homo sapiens) (UniProt P07550); experiment: Potency index, ratio of 4-((2S)-3-(((S)-3-(3-bromophenyl)-1-(methylamino)-1-oxopropan-2-yl)amino)-2-(2-cyclohexyl-2-phenylacetamido)-3-oxopropyl)benzamide Imax to test compound Imax for negative allosteric modulation of beta-2 adrenergic receptor (unknown origin) transfected in HEK293 cells assessed as decrease in cAMP accumulation at 50 uM preincubated for 20 mins followed by ISO treatment for 5 mins for by Glo sensor assay; format: functional, cell-based; conditions: filed as negative allosteric modulator, time 25.0 min
Beta-2 adrenergic receptor (Homo sapiens), sequence (P07550 whole entry, looked up): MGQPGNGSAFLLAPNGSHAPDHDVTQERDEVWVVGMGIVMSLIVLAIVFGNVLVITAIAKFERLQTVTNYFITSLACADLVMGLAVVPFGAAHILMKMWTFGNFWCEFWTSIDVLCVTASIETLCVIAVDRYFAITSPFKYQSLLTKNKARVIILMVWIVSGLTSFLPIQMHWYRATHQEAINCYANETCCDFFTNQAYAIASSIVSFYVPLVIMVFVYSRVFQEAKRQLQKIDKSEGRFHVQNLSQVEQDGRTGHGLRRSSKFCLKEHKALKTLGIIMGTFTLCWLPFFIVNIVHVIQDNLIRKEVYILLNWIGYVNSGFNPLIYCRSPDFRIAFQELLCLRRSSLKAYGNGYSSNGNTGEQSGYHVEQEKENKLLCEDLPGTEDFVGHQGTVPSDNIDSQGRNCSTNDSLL

[2] = molecular target: Beta-2 adrenergic receptor (Homo sapiens) (UniProt P07550); experiment: Negative allosteric modulation of beta-2 adrenergic receptor (unknown origin) transfected in HEK293 cells assessed as decrease in cAMP accumulation at 50 uM preincubated for 20 mins followed by ISO treatment for 5 mins for by Glo sensor assay relative to 4-((2S)-3-(((S)-3-(3-bromophenyl)-1-(methylamino)-1-oxopropan-2-yl)amino)-2-(2-cyclohexyl-2-phenylacetamido)-3-oxopropyl)benzamide; format: functional, cell-based; conditions: filed as negative allosteric modulator, time 25.0 min
[3] = Metabolic stability in mouse liver microsomes assessed as half life at 1 uM preincubated for 5 mins followed by NADPH addition measured for 5 to 60 mins by LC-MS/MS analysis; format: ADME, Microsome; conditions: time 10-65 min
[4] = Metabolic stability in mouse liver microsomes assessed as hepatic extraction ratio at 1 uM preincubated for 5 mins followed by NADPH addition measured for 5 to 60 mins by LC-MS/MS analysis; format: ADME, Microsome; conditions: time 10-65 min, read-out: ERH
[5] = Metabolic stability in human liver microsomes assessed as hepatic extraction ratio at 1 uM preincubated for 5 mins followed by NADPH addition measured for 5 to 60 mins by LC-MS/MS analysis; format: ADME, Microsome; conditions: time 10-65 min, read-out: ERH
[6] = Metabolic stability in human liver microsomes assessed as half life at 1 uM preincubated for 5 mins followed by NADPH addition measured for 5 to 60 mins by LC-MS/MS analysis; format: ADME, Microsome; conditions: time 10-65 min

Row | Structure (SMILES) | Ratio [1] | Imax [2] | half-life at 1 µM [3] | hepatic extraction ratio at 1 µM [4] | hepatic extraction ratio at 1 µM [5] | half-life at 1 µM [6]
1 | CNC(=O)[C@H](Cc1cccc(Br)c1)NC(=O)c1cc(-c2ccccc2)nn1Cc1ccccc1Cl | 1.14 | 114% |  |  |  | 
2 | CNC(=O)[C@H](Cc1cccc(Br)c1)NC(=O)c1cc(-c2ccccc2)nn1Cc1cccc(I)c1 | 1.25 | 125% |  |  |  | 
3 | CNC(=O)[C@H](Cc1cccc(Br)c1)NC(=O)c1cc(-c2ccccc2)nn1Cc1cccc(Cl)c1 | 1.14 | 114% |  |  |  | 
4 | CNC(=O)[C@H](Cc1cccc(Br)c1)NC(=O)c1cc(-c2ccccc2)nn1Cc1ccc(Cl)cc1 | 1.14 | 114% |  |  |  | 
5 | CNC(=O)[C@H](Cc1cccc(Br)c1)NC(=O)c1cc(-c2ccccc2[N+](=O)[O-])nn1Cc1cccc(Br)c1 | 1.2 | 120% |  |  |  | 
6 | CNC(=O)[C@H](Cc1cccc(Br)c1)NC(=O)c1cc(-c2ccccc2)nn1Cc1ccc(C#N)cc1 | 1 | 100% |  |  |  | 
7 | CNC(=O)[C@H](Cc1cccc(Br)c1)NC(=O)c1cc(-c2ccc(F)cc2)nn1Cc1cccc(Br)c1 | 1.3 | 130% |  |  |  | 
8 | CNC(=O)[C@H](Cc1cccc(Br)c1)NC(=O)[C@H](Cc1ccc(C(N)=O)cc1)NC(=O)C(c1ccccc1)C1CCCCC1 (stereo not given in full) |  |  | 2.19 min | 0.986 | 0.993 | 1.53 min
9 | CNC(=O)[C@H](Cc1cccc(Br)c1)NC(=O)c1cc(-c2ccccc2)nn1Cc1ccc(F)cc1 | 1.14 | 114% |  |  |  | 
10 | CNC(=O)[C@H](Cc1cccc(Br)c1)NC(=O)c1cc(-c2ccc(Br)cc2)nn1Cc1cccc(Br)c1 | 1.09 | 109% |  |  |  | 
11 | CNC(=O)[C@H](Cc1cccc(Br)c1)NC(=O)c1cc(-c2cccc(Br)c2)nn1Cc1cccc(Br)c1 | 1 | 100% |  |  |  | 
12 | CNC(=O)[C@H](Cc1cccc(Br)c1)NC(=O)c1cc(-c2ccccc2)nn1Cc1ccccc1C#N | 0.67 | 67% |  |  |  | 
13 | CNC(=O)[C@H](Cc1cccc(Br)c1)NC(=O)c1cc(-c2ccccc2Br)nn1Cc1cccc(Br)c1 | 0.91 | 91% |  |  |  | 
14 | CNC(=O)[C@H](Cc1cccc(Br)c1)NC(=O)c1cc(-c2ccccc2)nn1Cc1cccc(F)c1 | 1.33 | 133% |  |  |  | 
15 | CNC(=O)[C@H](Cc1cccc(Br)c1)NC(=O)c1cc(-c2ccccc2Cl)nn1Cc1cccc(Br)c1 | 1.18 | 118% |  |  |  | 
16 | CNC(=O)[C@H](Cc1cccc(Br)c1)NC(=O)c1cc(-c2ccccc2)nn1Cc1ccccc1F | 1.43 | 143% | 58.7 min | 0.721 | 0.835 | 41.5 min
17 | CNC(=O)[C@H](Cc1cccc(Br)c1)NC(=O)c1cc(-c2cccc(Cl)c2)nn1Cc1cccc(Br)c1 | 1.27 | 127% |  |  |  | 
